Assays:
[1] = CellTiter-Glo cytotoxicity of selected compounds (manual, 72 h); type: cell-based, human; conditions: human, up to 10 μM
Method: Assessment of gene expression and essentiality in RKO WT
Fluorescence Polarization‐based competition assay
EC50 values were calculated with GraphPad Prism […]
the FP value of free tracer. […]
instructions. […] For the screening of the whole SuFEx
Data visualization was done with seaborn
(https://seaborn.pydata.org, version 0.12.2). […]
compounds. (F) Analysis of the cytotoxicity of compounds with treatment‐centric features related to FL2‐ […]
Synthesis and in Vitro Evaluation of Diverse Heterocyclic Diphenolic Compounds as Inhibitors of DYRK1A.
(7) Zhang, J.‐H.; Chung, T. D. Y.; Oldenburg, K. R. A Simple Statistical Parameter for Use in Evaluation and Validation of High Throughput Screening Assays. SLAS Discov.

GSPT2 = target: T1, GSPT2 (Homo sapiens, UniProt Q8IYD1+Q96SW2); experiment: Western blot analysis of GSPT2 degradation in HEK293T cells; type: cell-based; conditions: 0 to 10 μM, 16 h
T1 construct: endogenous in cells; host or cells: RKO WT or RKO CRBN KO
Method: Figure 3 FL2-14 is a selective GSPT2 molecular glue degrader. (A) Structure of FL2-14 comprising fluorosulfate scaffold FL2 (black) and tail group modification 14 (blue). (B) DMSO-normalized quantitative proteomics after 16 h of treatment with FL2-14 (10 μM) in RKO WT (n = 2). […] (C) Structural alignment of AlphaFold models of GSPT1 (AF-P15170-F1-model_v4 in gray) and GSPT2 (AF-Q8IYD1-F1-model_v4 in blue). (D) Validation of GSPT2 degradation by FL2-14. […] (E) Dose–response of FL2-14 in RKO and HEK293T cells. Cells were treated with the FL2-14 (0 to 10 μM) for 16 h. (F) Degradation of GSPT2^WT or GSPT2^G566N. […]
spectra were searched against the human proteome (Canonical, reviewed, 20 304 sequences) and appended known contaminants and streptavidin, with a maximum of two allowable miscleavage sites. The search was performed with full tryptic digestion. […] Peptide spectrum matches (PSMs) with precursor isolation interference values of > 70, average TMTpro reporter ion S/N < 10 and SPS Mass Matches < 65 % were excluded from quantification. Both unique and razor peptides were used for TMT quantification. […] Protein ratios are directly calculated from the grouped protein abundances using an ANOVA hypothesis test. Adjusted p‐values are calculated using the Benjamini‐Hochberg method. […]

IKZF1 = target: T2, IKZF1 (Homo sapiens, UniProt Q13422); experiment: Western blot analysis of IKZF1 degradation in MV4.11 cells; type: cell-based; conditions: 16 h
T2 construct: endogenous in cells; host or cells: MV4.11
T2 sequence (Q96SW2 whole entry partner): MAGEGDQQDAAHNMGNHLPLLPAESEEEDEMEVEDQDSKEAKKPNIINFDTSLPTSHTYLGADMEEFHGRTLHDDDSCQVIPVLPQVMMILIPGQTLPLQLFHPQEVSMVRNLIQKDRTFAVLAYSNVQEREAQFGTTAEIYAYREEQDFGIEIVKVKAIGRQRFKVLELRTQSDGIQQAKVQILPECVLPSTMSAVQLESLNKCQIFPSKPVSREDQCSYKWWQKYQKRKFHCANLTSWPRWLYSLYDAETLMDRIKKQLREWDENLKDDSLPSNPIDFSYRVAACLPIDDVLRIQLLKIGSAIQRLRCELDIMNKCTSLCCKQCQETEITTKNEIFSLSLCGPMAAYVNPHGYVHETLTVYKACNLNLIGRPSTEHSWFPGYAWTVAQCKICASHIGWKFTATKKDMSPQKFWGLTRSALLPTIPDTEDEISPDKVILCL
T2 sequence (Q16531 2-1140 partner limits assumed): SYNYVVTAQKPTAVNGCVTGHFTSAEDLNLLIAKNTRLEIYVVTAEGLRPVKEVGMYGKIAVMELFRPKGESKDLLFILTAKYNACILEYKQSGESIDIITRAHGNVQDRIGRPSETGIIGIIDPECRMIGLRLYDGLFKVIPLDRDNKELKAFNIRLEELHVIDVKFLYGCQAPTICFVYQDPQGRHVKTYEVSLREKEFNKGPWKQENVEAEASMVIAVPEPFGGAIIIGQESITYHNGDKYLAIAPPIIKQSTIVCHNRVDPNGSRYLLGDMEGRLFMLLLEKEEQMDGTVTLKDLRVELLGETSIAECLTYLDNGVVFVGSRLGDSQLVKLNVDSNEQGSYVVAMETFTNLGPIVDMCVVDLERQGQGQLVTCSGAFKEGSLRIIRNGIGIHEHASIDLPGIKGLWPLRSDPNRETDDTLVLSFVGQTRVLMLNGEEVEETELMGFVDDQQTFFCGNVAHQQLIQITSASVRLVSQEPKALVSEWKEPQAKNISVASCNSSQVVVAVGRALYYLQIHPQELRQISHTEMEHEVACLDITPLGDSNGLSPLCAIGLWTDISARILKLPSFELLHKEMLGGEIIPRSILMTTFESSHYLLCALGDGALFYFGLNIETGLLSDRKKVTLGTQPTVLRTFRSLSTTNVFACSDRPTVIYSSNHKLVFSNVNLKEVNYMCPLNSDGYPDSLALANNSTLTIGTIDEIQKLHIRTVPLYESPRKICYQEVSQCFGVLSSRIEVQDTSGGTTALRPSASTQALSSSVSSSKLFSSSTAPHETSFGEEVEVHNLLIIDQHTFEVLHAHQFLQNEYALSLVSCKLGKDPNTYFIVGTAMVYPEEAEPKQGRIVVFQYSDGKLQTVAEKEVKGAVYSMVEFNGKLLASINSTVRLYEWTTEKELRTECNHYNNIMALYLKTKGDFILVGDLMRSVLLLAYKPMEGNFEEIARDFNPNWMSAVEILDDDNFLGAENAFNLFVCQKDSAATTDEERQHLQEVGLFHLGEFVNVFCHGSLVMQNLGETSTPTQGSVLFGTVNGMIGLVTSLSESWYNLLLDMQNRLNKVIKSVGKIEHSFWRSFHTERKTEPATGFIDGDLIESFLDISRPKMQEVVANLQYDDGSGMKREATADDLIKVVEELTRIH
T2 sequence (Q13422 whole entry): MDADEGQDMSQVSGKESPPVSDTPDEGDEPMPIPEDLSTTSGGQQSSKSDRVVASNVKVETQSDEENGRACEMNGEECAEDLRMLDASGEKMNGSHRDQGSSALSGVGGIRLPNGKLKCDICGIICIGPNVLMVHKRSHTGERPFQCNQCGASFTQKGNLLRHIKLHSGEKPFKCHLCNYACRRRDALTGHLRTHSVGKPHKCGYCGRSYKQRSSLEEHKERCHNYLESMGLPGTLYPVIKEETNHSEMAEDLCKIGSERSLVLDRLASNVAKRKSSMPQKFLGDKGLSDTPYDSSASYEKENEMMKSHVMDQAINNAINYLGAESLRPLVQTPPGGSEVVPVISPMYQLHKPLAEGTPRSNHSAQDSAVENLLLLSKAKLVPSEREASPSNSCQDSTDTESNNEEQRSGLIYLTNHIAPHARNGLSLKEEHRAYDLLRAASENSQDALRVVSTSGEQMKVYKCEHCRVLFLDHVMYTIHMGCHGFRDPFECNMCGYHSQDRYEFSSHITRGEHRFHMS

T1 sequence (Q8IYD1 whole entry): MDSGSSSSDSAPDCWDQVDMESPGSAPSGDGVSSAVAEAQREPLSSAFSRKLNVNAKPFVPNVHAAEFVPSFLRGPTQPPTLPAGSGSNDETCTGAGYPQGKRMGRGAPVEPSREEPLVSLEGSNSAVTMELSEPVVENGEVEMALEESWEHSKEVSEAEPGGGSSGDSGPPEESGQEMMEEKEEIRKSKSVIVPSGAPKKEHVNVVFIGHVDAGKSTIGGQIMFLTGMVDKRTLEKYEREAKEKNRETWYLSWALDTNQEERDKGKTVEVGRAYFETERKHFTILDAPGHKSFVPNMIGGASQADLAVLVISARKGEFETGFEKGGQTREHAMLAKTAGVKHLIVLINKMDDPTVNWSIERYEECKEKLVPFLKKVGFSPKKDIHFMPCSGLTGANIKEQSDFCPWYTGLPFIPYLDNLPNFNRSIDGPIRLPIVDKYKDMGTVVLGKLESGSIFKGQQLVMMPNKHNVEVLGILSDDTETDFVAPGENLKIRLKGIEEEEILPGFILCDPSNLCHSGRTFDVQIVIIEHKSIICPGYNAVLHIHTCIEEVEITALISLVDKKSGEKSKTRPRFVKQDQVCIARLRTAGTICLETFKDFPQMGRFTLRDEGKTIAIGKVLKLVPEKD
T1 sequence (Q96SW2 whole entry): as the sequence (Q96SW2 whole entry partner) above
T1 sequence (Q16531 2-1140 partner limits assumed): as the sequence (Q16531 2-1140 partner limits assumed) above

## CN(Cc1ncc(C2CC2)o1)S(=O)(=O)Oc1ccc(Nc2ccc3c(c2)C(=O)N(C2CCC(=O)NC2=O)C3=O)cc1 (stereo not shown) [FL2-14]
[1]; HEK293T cells
  EC50 at 72 h: > 10 µM
[1]; RKO WT cells
  EC50 at 72 h: > 10 µM
GSPT2
  GSPT2 degradation in HEK293T cells: could also be observed in HEK293T cells
IKZF1
  IKZF1 degradation: did not induce degradation of IKZF1

Source: paper PMC10764104, “Discovery of Molecular Glue Degraders via Isogenic Morphological Profiling” (ACS Chemical Biology, 2023)
